Results from patent publication US7531555B2, “Compositions and methods for selective inhibition of nicotine acetylcholine receptors” (University of Florida Research Foundation, Inc., priority 2003, dated 2009).

Key:
mice [1] = assay: Locomotor activity, nicotine-induced hypomotility; assay type: in vivo; conditions: Saline/Nicotine (1.5 mg/kg), s.c.
Description: Animals. Male ICR mice (20-25 g) obtained from Harlan Laboratories (Indianapolis, Ind.) were used throughout the study. Animals were housed in groups of six and had free access to food and water. Adult, male Long-Evans rats (350-460 g), obtained from Harlan (Dublin, Va.), were individually housed in a temperature-controlled (20-22° C.) environment with a 12-hour light-dark cycle (lights on at 7 a.m.). Rats were maintained within the indicated weight range by restricted post-session feeding and had ad libitum water in their home cages. Rats were drug-naive at the beginning of the study. Animals were housed in an AALAC approved facility and the study was approved by the Institutional Animal Care and Use Committee of Virginia Commonwealth University.
Locomotor activity. Mice were placed into individual Omnitech photocell activity cages (28×16.5 cm) immediately after s.c. administration of either 0.9% saline or nicotine (6.2 μmol/kg or 1 mg/kg) and were allowed to acclimate for 10 minutes. Interruptions of the photocell beams (two banks of eight cells each) were then recorded for the next 10 minutes. Data were expressed as percentage of depression where % depression=[1−(counts from nicotine-treated animals/counts from vehicle-treated animals)]×100. Mice were pretreated s.c. with either saline or TMPH 10 minutes before nicotine.
Eight to twelve mice were tested in each treatment group and each animal was tested only once.
Statistical analysis. Statistical analysis of all analgesic and in vivo studies was performed using either t-test or analysis of variance (ANOVA) with Tukey's test post hoc test when appropriate. All differences were considered significant at p<0.05. AD50 values with 95% CL for behavioral data were calculated by unweighted least-squares linear regression as described by Tallarida and Murray (Tallarida and Murray Manual of Pharmacological Calculations with Computer Programs. 1987, Springer-Verlag, New York).

mice [2] = assay: Body temperature, nicotine-induced hypothermia; assay type: in vivo; conditions: Saline/Nicotine (1.5 mg/kg), s.c.
Description: Animals. Male ICR mice (20-25 g) obtained from Harlan Laboratories (Indianapolis, Ind.) were used throughout the study. Animals were housed in groups of six and had free access to food and water. Adult, male Long-Evans rats (350-460 g), obtained from Harlan (Dublin, Va.), were individually housed in a temperature-controlled (20-22° C.) environment with a 12-hour light-dark cycle (lights on at 7 a.m.). Rats were maintained within the indicated weight range by restricted post-session feeding and had ad libitum water in their home cages. Rats were drug-naive at the beginning of the study. Animals were housed in an AALAC approved facility and the study was approved by the Institutional Animal Care and Use Committee of Virginia Commonwealth University. Body temperature. Rectal temperature was determined by a thermistor probe (inserted 24 mm) and digital thermometer (Yellow Springs Instrument Co., Yellow Springs, Ohio). […] The difference in rectal temperature before and after treatment was calculated for each mouse. The ambient temperature of the laboratory varied from 21-24° C. from day to day. […] Psychopharmacology (Berl), 1995, 117:67-73). Eight to twelve mice were tested in each treatment group and each animal was tested only once. Statistical analysis. Statistical analysis of all analgesic and in vivo studies was performed using either t-test or analysis of variance (ANOVA) with Tukey's test post hoc test when appropriate.

Rat α4β2 = molecular target: T1, Rat α4β2 (Rattus norvegicus, UniProt P09483+P12390); conditions: mecamylamine, comparison value in discussion; read-out: IC50 (peak), expressed α4β2 subtypes; cited from earlier work
T1 construct: expressed in transfected cells; host or cells: Xenopus laevis oocytes injected with subunit cRNAs; clones from Dr. Jim Boulter (UCLA)
T1 sequence (P09483 31-630): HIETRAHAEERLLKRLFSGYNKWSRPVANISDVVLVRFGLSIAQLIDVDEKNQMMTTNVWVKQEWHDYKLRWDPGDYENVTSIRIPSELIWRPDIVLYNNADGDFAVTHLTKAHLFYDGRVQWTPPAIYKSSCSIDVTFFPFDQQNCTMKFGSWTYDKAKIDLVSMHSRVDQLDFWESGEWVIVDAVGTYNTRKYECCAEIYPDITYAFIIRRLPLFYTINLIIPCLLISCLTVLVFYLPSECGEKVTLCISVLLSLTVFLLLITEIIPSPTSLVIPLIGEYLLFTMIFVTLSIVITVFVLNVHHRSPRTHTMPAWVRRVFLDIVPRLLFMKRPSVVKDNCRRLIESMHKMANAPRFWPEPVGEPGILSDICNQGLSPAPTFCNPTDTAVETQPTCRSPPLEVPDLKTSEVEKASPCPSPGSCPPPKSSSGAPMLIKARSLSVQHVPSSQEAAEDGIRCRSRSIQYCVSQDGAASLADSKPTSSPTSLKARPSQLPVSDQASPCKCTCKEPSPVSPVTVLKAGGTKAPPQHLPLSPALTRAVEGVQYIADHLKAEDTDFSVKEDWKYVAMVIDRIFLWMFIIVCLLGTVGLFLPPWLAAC
T1 sequence (P12390 25-500): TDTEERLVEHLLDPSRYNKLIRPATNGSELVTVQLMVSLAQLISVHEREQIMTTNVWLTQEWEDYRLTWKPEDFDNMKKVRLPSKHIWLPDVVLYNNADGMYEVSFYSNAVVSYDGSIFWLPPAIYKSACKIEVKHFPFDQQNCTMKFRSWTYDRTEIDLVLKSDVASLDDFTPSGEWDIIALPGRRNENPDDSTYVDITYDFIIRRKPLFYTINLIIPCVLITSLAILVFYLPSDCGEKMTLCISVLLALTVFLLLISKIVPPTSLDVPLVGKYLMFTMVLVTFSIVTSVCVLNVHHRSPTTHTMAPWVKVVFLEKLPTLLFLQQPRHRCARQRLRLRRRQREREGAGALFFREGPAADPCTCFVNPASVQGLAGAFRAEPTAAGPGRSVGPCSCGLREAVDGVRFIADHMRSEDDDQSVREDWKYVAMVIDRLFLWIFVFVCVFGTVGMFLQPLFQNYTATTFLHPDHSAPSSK

Row | SMILES | Locomotor Activity # Interrupts (Mean ± SEM) (mice [1]) | Body temperature Δ° C. (Mean ± SEM) (mice [2]) | IC50 (Rat α4β2)
1 | CN1CCCC1c1cccnc1 (single isomer, unassigned; (-)) [Nicotine, (−)-Nicotine] | 358 ± 92 # Interrupts | −5.0 ± 0.3 °C | –
2 | CNC1(C)C2CCC(C2)C1(C)C (stereo not drawn) [Mecamylamine] | – | – | 2500 nM
